Measured values taken from patent US20090170847A1, “Imidazopyridine Derivatives Inhibiting Protein Kinase Activity, Method for the Preparation Thereof and Pharmaceutical Composition Containing Same” (priority 2006, published 2009).

Target: T1, Aurora Kinase A (Homo sapiens, UniProt O14965)
T1 construct: purchased Upstate
T1 sequence (O14965 1-403): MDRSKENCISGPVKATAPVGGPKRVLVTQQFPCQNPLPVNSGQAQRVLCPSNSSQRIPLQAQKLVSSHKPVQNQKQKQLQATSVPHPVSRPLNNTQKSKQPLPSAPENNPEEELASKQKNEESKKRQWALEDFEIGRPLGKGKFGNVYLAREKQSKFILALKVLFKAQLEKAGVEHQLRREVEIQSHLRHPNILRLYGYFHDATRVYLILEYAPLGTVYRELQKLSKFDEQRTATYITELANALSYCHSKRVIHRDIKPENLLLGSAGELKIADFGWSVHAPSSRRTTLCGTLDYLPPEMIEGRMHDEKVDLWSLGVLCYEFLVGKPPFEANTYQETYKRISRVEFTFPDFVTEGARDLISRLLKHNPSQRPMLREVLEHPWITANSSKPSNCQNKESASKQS
Test: Aurora kinase A enzyme inhibition (Kemptide, Kinase glo)
Assay type: biochemical
Details: 1 μM ATP
Description: The test solution prepared above by dissolving a test compound in DMSO was added to the reaction solution in an amount of less than 5% based on the total reaction solution to analyze the capacity for enzyme inhibitory activity. The cpm value obtained when the test compounds was present relative to the cpm value in the absence of the test compound was represented by percentage, and IC50 (μM) was determined as the concentration of the test compound required to inhibit the enzyme activity by 50% relatively to the control solution.
A test solution was prepared by dissolving one of the compounds of the Examples in DMSO at a concentration of 12.5 mM. Enzyme reaction was conducted in a buffer solution containing 20 mM of HEPES (pH 7.5), 5 mM MgCl2, 0.5 mM ethylene glycol bis(b-aminoethylether) tetraacetic acid (EGTA), 200 mM of KCl, 1 mM of DTT and 0.05% triton X-100. 100 μM of Kemptide peptide (Upstate) and 1 μM of ATP were added to the buffer solution as substrates. Recombinant aurora kinase (Upstate) was added the resulting mixture at a concentration of 10 nM and reaction was carried out at 30° C. for 1 hour. 25 μl of the resulting solution was mixed with 25 μl of Kinase glo (promega), thereby inducing the second reaction by luciferase. The amount of remained ATP was measured by fusion a-FP (Packard, USA). Inhibitory capacities of the test compounds for the enzyme activity were assessed according to the same method as in GSK-3β analysis, and IC50 value was calculated.

Structure (SMILES) | IC50 [nM]
CCOc1ccncc1NC(=O)c1ccnc2[nH]c(-c3ccc(OC)cc3)nc12 [Example 425, 2-(4-methoxy-phenyl)-3H-imidazo[4,5-b]pyridine-7-carboxylic acid(4-ethoxy-pyridin-3-yl)-amide] | > 6000
CCOc1cc(C)ncc1NC(=O)c1ccnc2[nH]c(-c3ccc(N4CCN(C)CC4)cc3)nc12 [Example 423, 2-[4-(4-methyl-piperazin-1-yl)-phenyl]-3H-imidazo[4,5-b]pyridine-7-carboxylic acid(4-ethoxy-6-methyl-pyridin-3-yl)-amide] | 105
CN(C)CCOc1ccncc1NC(=O)c1ccnc2[nH]c(-c3ccc(F)cc3)nc12 [Example 313, 2-(4-fluoro-phenyl)-3H-imidazo[4,5-b]pyridine-7-carboxylic acid[4-(2-dimethylamino-ethoxy)-pyridin-3-yl]-amide] | 1100
CN1CCN(c2ccc(-c3nc4c(C(=O)NC5CC6CCC5C6)ccnc4[nH]3)cc2)CC1 (stereo not drawn) [Example 371, 2-[4-(4-methyl-piperazin-1-yl)-phenyl]-3H-imidazo[4,5-b]pyridine-7-carboxylic acid bicyclo[2.2.1]heptin-2-ylamide] | 113
CCSc1ccncc1NC(=O)c1ccnc2[nH]c(-c3ccc(N4CCN(C)CC4)cc3)nc12 [Example 418, 2-[4-(4-methyl-piperazin-1-yl)-phenyl]-3H-imidazo[4,5-b]pyridine-7-carboxylic acid(4-ethylsulfanyl-pyridin-3-yl)-amide] | 200
CCN(CC)C1CCN(c2ccc(-c3nc4c(C(=O)Nc5ccc(C)nc5)ccnc4[nH]3)cc2)C1 (stereo not drawn) [Example 409, 2-[4-(3-diethylamino-pyrrolidin-1-yl)-phenyl]-3H-imidazo[4,5-b]pyridine-7-carboxylic acid(6-methyl-pyridin-3-yl)-amide] | 250

Stronger by IC50, values ahead:

IC50 [nM] | Structure (SMILES)
70 | O=C(NC1C2CC3CC(C2)CC1C3)c1ccnc2[nH]c(-c3ccc(F)cc3)nc12 (stereo not drawn) [Example 264, 2-(4-fluoro-phenyl)-3H-imidazo[4,5-b]pyridine-7-carboxylic acid adamantan-2-ylamide]
40 | CC1(C)C2CC[C@@]1(C)[C@@H](NC(=O)c1ccnc3[nH]c(-c4ccc(NCCN5CCOCC5)cc4)nc13)C2 [Example 368, 2-[4-(2-morpholin-4-yl-ethylamino)-phenyl]-3H-imidazo[4,5-b]pyridine-7-carboxylic acid(1,7,7-trimethyl-bicyclo[2.2.1]heptin-2-yl)-amide]
33 | CCC(C)(C)NC(=O)c1ccnc2[nH]c(-c3ccc(NCCN(C)C)cc3)nc12 [Example 381, 2-[4-(2-dimethylamino-ethylamino)-phenyl]-3H-imidazo[4,5-b]pyridine-7-carboxylic acid(1,1-dimethyl-propyl)-amide]
